Data set [1] relates to rat model for lower back pain (L5 spinal root loosely ligated with chromic gut). The experiment in a line: Mechanical sensitivity (allodynia) testing with von Frey filaments after L5 spinal root injury. In kind it is in vivo. The source says: (§1) The first phase of the study investigated three combinations of treatments: 1) Group A—methotrexate administration locally (intrathecally) to the surgical area immediately following surgery, followed by additional methotrexate administration locally at days 2 and 4 post-surgery; 2) Group B—saline administration locally to the surgical area immediately following surgery and at days 2 and 4 post-surgery; and 3) Group C—sham-operated animals that received methotrexate at the same time points. In all animals, gait disturbance and mechanical allodynia were assessed until animals were euthanized 7 days after surgery.
In the second phase of the study, animals were assessed out to day 14 post-surgery and given additional treatments as follows: 1) Group D—surgically prepared, saline treated rats were then given methotrexate locally during the second week of the study on days 7, 9, and 11 post-surgery; 2) Group E—surgically prepared, saline treated rats were then given saline locally during the second week on days 7, 9, and 11 post-surgery; and 3) Group F—surgically prepared, methotrexate treated rats were then given saline during the second week on days 7, 9, and 11 post-surgery. Gait disturbance and mechanical allodynia were assessed before surgery and at days 2, 4, 7, 9, 11, and 14 until euthanization.
(§2) Male Holtzman rats (200-250 g) were used. All surgical procedures were performed under inhalation anesthesia (induced at 4% and maintained at 2% halothane in 100% O2). Spinal root, dorsal root ganglia, and the adjacent dura mater on the left side at L5 were carefully exposed by hemilaminectomy using a surgical microscope. Five 0.3 cm pieces of 4-0 chromic gut ligature were laid adjacent to the root and secured by two loose ligatures of 5-0 chromic gut. The muscle layers and incision were closed with 3-0 silk suture and staples, respectively.
For phase I, three combinations of treatments were investigated. Methotrexate was reconstituted to 10 mg/ml in saline and pH adjusted to 7.4. Group A represented root injury plus methotrexate treatment. Immediately following surgery and prior to incision closure, Group A rats received 1 mg/kg of methotrexate (volume 100 ul/kg) by injecting through a PE-10 catheter through an incision in the exposed dura mater to a position 3 cm central to the incision. The PE-10 catheter was pulled out and the same dose and volume of methotrexate (1 mg/kg) was administered around the injured nerve roots (total dose 2 mg/kg). The wound was closed. On days 2 and 4 post-surgery, under inhalation anesthesia, methotrexate was again administered by opening the surgical wound and repeating delivery of methotrexate as before.
Group C animals represented sham-operated plus methotrexate treatment. In these animals, the L5 nerve roots were exposed but not injured. Methotrexate was administered using the same dose, protocol, and time points as Group A.
For phase II of the study, the protocol was extended to day 14 with the surgery, delivery method, volume and doses being identical to those of the phase I study. Rats were divided into 3 groups. Group D represented saline plus methotrexate treatment. Saline was administered at the time of surgery and at days 2 and 4 post-surgery. Methotrexate was administered in the second week at days 7, 9 and 11 post-surgery.
Group F represented methotrexate plus saline treatment. In these rats, methotrexate was administered during surgery and at days 2 and 4 post-surgery. Saline was then administered on days 7, 9, and 11 post-surgery. Gait disturbance and mechanical allodynia were also assessed in these animals at days 2, 4, 7, 9, 11 and 14 (day of euthanization).
Animals were tested for 3 days pre-operatively to acclimate to the testing apparatus and the experimenter, and to obtain baseline values. All testing was performed by experimenters blinded to the treatments.

Data set [2] has the same test system. The experiment in a line: Gait disturbance and hind paw inversion testing after L5 spinal root injury. Format: in vivo. Particulars: phase I.
From the text: as §1, with “surgery. […]” for “surgery.”
as §2
For phase I, three combinations of treatments were investigated. Methotrexate was reconstituted to 10 mg/ml in saline and pH adjusted to 7.4. Group A represented root injury plus methotrexate treatment. […]

Data set [3] concerns OX-42 and GFAP (glial fibrillary acidic protein). The experiment in a line: Immunohistochemical analysis of spinal glial activation. In kind it is in vivo, rat. Particulars: methotrexate-treated groups vs saline-treated groups; L5 spinal cord sections. How it is done: All animals were perfusion fixed for immunohistochemistry. Under deep anesthesia (sodium pentobarbital, 50 mg/kg intraperitoneally) rats were euthanized by transcardiac perfusion. Rats were then perfused with 300 ml phosphate buffered saline (PBS) followed by 500 ml 4% paraformaldehyde in 0.1 M PBS. Following perfusion and laminectomy, the lesioned L5 roots were verified and traced to their site of entry into the spinal cord. Appropriate L5 spinal cord segments were harvested and post fixed for 4 hours in fixative and then cryoprotected 2-3 days in 30% sucrose/PBS at 4° C. The segments were then freeze-mounted in OCT embedding medium on cork blocks for cryostat sectioning.
Optimal dilutions and incubation time periods for each antibody and lot were determined prior to the study. Immunohistochemistry was performed with the avidin-biotin technique on free-floating 20 μm sections. Elimination of the primary antibody was performed in each run as a negative control. Monoclonal antibody OX-42 (labeling the complement receptor-3, CDllb) was used as a microglial marker at a dilution of […]. A rabbit polyclonal antibody to glial fibrillary protein (anti-GFAP, DAKO, Carpintra, Calif.) was used as an astrocytic marker at a dilution of 1:20,000. Five or more sections per animal were prepared from the L5 segments in each run. […]

The conditions of data set [4]: dose without acute neurotoxic effects; Morris et al. 1992; cited from earlier work.
Data set [5] concerns rat model for lower back pain (L5 spinal root loosely ligated with chromic gut). The experiment in a line: Gross pathological inspection of injured nerve roots following euthanasia. Format: in vivo. Particulars: methotrexate-treated groups (A, D and F) compared to saline-treated groups (B and E). The procedure: In all groups except the sham-operated animals (Group C), the treated nerve roots were encapsulated with dense granulation tissue and fibrous adhesions.
as §2
For phase I, three combinations of treatments were investigated. Methotrexate was reconstituted to 10 mg/ml in saline and pH adjusted to 7.4. Group A represented root injury plus methotrexate treatment. Immediately following surgery and prior to incision closure, Group A rats received 1 mg/kg of methotrexate (volume 100 ul/kg) by injecting through a PE-10 catheter through an incision in the exposed dura mater to a position 3 cm central to the incision. […]
Group F represented methotrexate plus saline treatment. […] Gait disturbance and mechanical allodynia were also assessed in these animals at days 2, 4, 7, 9, 11 and 14 (day of euthanization).

`CN(Cc1cnc2nc(N)nc(N)c2n1)c1ccc(C(=O)N[C@@H](CCC(=O)O)C(=O)O)cc1` [methotrexate, Methotrexate]: in data set [1] (lower back pain model with radiculopathy, local administration), the “mechanical allodynia, overall conclusion” value is recorded as “significantly attenuates”. Further, the mechanical allodynia entry in data set [1] (phase I, Group A (injury+methotrexate at surgery, days 2 and 4), toward baseline after peak at day 2, to day 7) is recorded as “significantly reduced”. In data set [1] (phase I, Group C (sham-operated+methotrexate)), the “mechanical allodynia response after surgery” value is “minimal (minimal (0-5))”. For the same molecule, the “mechanical allodynia during the second week” value in data set [1] (phase II, Group D (saline in week 1, methotrexate on days 7, 9, 11), existing allodynia, Group E (saline) persisted) is listed as “significantly decreased”. Further, in data set [1] (phase II, Group F (methotrexate at surgery, days 2 and 4) compared to Groups D and E), the “allodynia at day 7 post-surgery” value is “significantly attenuated”. The “allodynic response during the second week” value in data set [1] (phase II, Group F compared to Group E) is “significantly lower”. Moreover, the “postoperative changes in hind paw inversion or gait disturbance” value in data set [2] (Group A (injury+methotrexate, 1 mg/kg intrathecal + 1 mg/kg perineural at surgery, days 2 and 4) vs Group B (saline)) was “no significant difference”. The “hind paw inversion or gait disturbance” value in data set [2] (Group C, sham-operated + methotrexate at surgery, days 2 and 4) is recorded as “did not demonstrate any hind paw inversion or gait disturbance”. In addition, in data set [3], the “level of glial activation (OX-42, GFAP)” value is reported as “significant difference”. Also, in data set [4], the “administered dose (1 mg/kg) as fraction of the maximally tolerated dose for rats” value is reported as “one quarter”. In data set [5], the “granulation and adhesion around the injured nerve roots” value is reported as “markedly decreased”.

Source of the values: patent US7906514B1, “Animal model and compounds identified via this model for treatment of chronic pain” (Trustees of Dartmouth College, priority 1999, dated 2011).
